Target: T1, human TLR8 (Homo sapiens, UniProt Q9NR97)
T1 construct: host or cells: HEK-Blue cells
T1 sequence (Q9NR97 27-1041): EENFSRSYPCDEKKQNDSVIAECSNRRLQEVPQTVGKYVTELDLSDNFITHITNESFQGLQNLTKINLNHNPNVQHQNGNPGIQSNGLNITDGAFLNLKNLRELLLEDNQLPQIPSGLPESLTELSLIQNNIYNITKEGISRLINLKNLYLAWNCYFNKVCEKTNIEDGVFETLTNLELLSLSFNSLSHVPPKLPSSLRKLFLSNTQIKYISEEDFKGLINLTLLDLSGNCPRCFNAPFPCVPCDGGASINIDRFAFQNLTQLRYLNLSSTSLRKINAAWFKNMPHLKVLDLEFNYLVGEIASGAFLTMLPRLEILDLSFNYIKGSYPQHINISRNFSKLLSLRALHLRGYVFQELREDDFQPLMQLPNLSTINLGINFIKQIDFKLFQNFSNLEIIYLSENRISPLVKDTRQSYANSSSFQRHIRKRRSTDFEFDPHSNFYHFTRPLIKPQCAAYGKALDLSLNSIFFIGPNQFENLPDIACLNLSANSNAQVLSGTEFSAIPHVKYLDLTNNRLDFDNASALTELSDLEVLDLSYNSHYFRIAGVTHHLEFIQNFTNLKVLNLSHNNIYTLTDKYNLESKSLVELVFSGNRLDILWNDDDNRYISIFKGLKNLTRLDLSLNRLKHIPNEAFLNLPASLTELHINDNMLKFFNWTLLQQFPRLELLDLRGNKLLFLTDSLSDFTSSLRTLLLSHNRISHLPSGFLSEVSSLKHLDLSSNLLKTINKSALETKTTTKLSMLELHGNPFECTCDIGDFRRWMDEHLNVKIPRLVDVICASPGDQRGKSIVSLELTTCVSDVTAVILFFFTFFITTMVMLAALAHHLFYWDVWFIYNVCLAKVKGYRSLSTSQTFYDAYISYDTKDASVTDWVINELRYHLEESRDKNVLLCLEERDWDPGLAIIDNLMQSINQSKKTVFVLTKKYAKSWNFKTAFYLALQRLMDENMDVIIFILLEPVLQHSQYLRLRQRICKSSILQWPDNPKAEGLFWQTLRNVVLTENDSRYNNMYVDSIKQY
Experiment: TLR8 inhibition reporter assay (HEK-Blue SEAP)
Type: cell-based
Details: HEK-Blue cells overexpressing human TLR8, R848 15.9 μM, 22 hour incubation
Procedure, shortened: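 Agonists used: gardiquimod 7.5 μM (TLR7), R848 15.9 μM (TLR8), ODN2006 5 nM (TLR9), added after 30 min room-temperature compound pre-treatment (0.05 nM–50 μM) of receptor-overexpressing HEK-Blue cells. SEAP reporter (NF-κB/AP-1 driven) read after 22 h at 37 °C; inhibition scaled between agonist+DMSO and reference-inhibitor wells.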

| Structure (SMILES) | IC50 |
| --- | --- |
| COc1cc(-c2ccc3c(c2)[nH]c(=O)n3C2CCN(CC3CC3)CC2)cn2ncnc12 [Example 79, 1-(1-(cyclopropylmethyl)piperidin-4-yl)-5-(8-methoxy-[1,2,4]triazolo[1,5-a]pyridin-6-yl)-1,3-dihydro-2H-benzo[d]imidazol-2-one] | 1550 nM |
| COc1cc(-c2ccc3c(c2)[nH]c(=O)n3C2CCN(C3COC3)CC2)cn2ncnc12 [Example 80, 5-(8-methoxy-[1,2,4]triazolo[1,5-a]pyridin-6-yl)-1-(1-(oxetan-3-yl)piperidin-4-yl)-1,3-dihydro-2H-benzo[d]imidazol-2-one] | > 3130 nM |
| COc1cc(-c2ccc3c(c2)[nH]c(=O)n3C2CCN(C3CCOC3)CC2)cn2ncnc12 (stereo not drawn) [Example 81, 5-(8-methoxy-[1,2,4]triazolo[1,5-a]pyridin-6-yl)-1-(1-(tetrahydrofuran-3-yl)piperidin-4-yl)-1,3-dihydro-2H-benzo[d]imidazol-2-one] | > 3130 nM |
| COc1cc(-c2ccc3c(c2)[nH]c(=O)n3C2CCN(CC3CCOC3)CC2)cn2ncnc12 (stereo not drawn) [Example 82, 5-(8-methoxy-[1,2,4]triazolo[1,5-a]pyridin-6-yl)-1-(1-((tetrahydrofuran-3-yl)methyl)piperidin-4-yl)-1,3-dihydro-2H-benzo[d]imidazol-2-one] | 2600 nM |
| COc1cc(-c2ccc3c(c2)[nH]c(=O)n3C2CCN(C3CCC3)CC2)cn2ncnc12 [Example 83, 1-(1-cyclobutylpiperidin-4-yl)-5-(8-methoxy-[1,2,4]triazolo[1,5-a]pyridin-6-yl)-1,3-dihydro-2H-benzo[d]imidazol-2-one] | 1260 nM |
| COc1cc(-c2cc3[nH]c(=O)n([C@H]4CC[C@@H](N(C)C(C)C)CC4)c3cc2C)cn2ncnc12 [Example 84, 1-((1s,4s)-4-(isopropyl(methyl)amino)cyclohexyl)-5-(8-methoxy-[1,2,4]triazolo[1,5-a]pyridin-6-yl)-6-methyl-1,3-dihydro-2H-benzo[d]imidazol-2-one] | 9.69 nM |
| COc1cc(-c2cc3[nH]c(=O)n([C@H]4CC[C@@H](N(C)C5CCOCC5)CC4)c3cc2C)cn2ncnc12 [Example 85, 5-(8-methoxy-[1,2,4]triazolo[1,5-a]pyridin-6-yl)-6-methyl-1-((1s,4s)-4-(methyl(tetrahydro-2H-pyran-4-yl)amino)cyclohexyl)-1,3-dihydro-2H-benzo[d]imidazol-2-one] | 7.14 nM |
| Cc1cc(-c2ccc3c(c2)[nH]c(=O)n3C2CCN(CC(=O)N(C)C)CC2)cn2ncnc12 [Example 90, N,N-dimethyl-2-(4-(5-(8-methyl-[1,2,4]triazolo[1,5-a]pyridin-6-yl)-2-oxo-2,3-dihydro-1H-benzo[d]imidazol-1-yl)piperidin-1-yl)acetamide] | > 3130 nM |

Further lines, results first:

| IC50 | Structure (SMILES) |
| --- | --- |
| 359 nM | COc1cc(-c2cc3[nH]c(=O)n(C4CCN(CC(=O)N(C)C)CC4)c3cc2C)cn2ncnc12 [Example 86, 2-(4-(5-(8-methoxy-[1,2,4]triazolo[1,5-a]pyridin-6-yl)-6-methyl-2-oxo-2,3-dihydro-1H-benzo[d]imidazol-1-yl)piperidin-1-yl)-N,N-dimethylacetamide] |
| 377 nM | CNC(=O)CN1CCC(n2c(=O)[nH]c3cc(-c4cc(OC)c5ncnn5c4)c(C)cc32)CC1 [Example 87, 2-(4-(5-(8-methoxy-[1,2,4]triazolo[1,5-a]pyridin-6-yl)-6-methyl-2-oxo-2,3-dihydro-1H-benzo[d]imidazol-1-yl)piperidin-1-yl)-N-methylacetamide] |
| 115 nM | CNC(=O)CN1CCC(n2c(=O)[nH]c3cc(-c4cc(C)c5ncnn5c4)c(C)cc32)CC1 [Example 88, N-methyl-2-(4-(6-methyl-5-(8-methyl-[1,2,4]triazolo[1,5-a]pyridin-6-yl)-2-oxo-2,3-dihydro-1H-benzo[d]imidazol-1-yl)piperidin-1-yl)acetamide] |
| 105 nM | Cc1cc2c(cc1-c1cc(C)c3ncnn3c1)[nH]c(=O)n2C1CCN(CC(=O)N(C)C)CC1 [Example 89, N,N-dimethyl-2-(4-(6-methyl-5-(8-methyl-[1,2,4]triazolo[1,5-a]pyridin-6-yl)-2-oxo-2,3-dihydro-1H-benzo[d]imidazol-1-yl)piperidin-1-yl)acetamide] |
| > 3130 nM | Cc1cc2c(cc1-c1cc(C)c3ncnn3c1)[nH]c(=O)n2C1CCN(CC(=O)N(C)C)CC1 [Example 91, N,N-dimethyl-2-(4-(6-methyl-5-(8-methyl-[1,2,4]triazolo[1,5-a]pyridin-6-yl)-2-oxo-2,3-dihydro-1H-benzo[d]imidazol-1-yl)piperidin-1-yl)acetamide] |
| 177 nM | Cc1cc2c(cc1-c1cc(C)c3ncnn3c1)[nH]c(=O)n2[C@H]1CCCN(CC(N)=O)C1 [Example 92, (S)-2-(3-(6-methyl-5-(8-methyl-[1,2,4]triazolo[1,5-a]pyridin-6-yl)-2-oxo-2,3-dihydro-1H-benzo[d]imidazol-1-yl)piperidin-1-yl)acetamide] |
| 105 nM | Cc1cc2c(cc1-c1cc(C)c3ncnn3c1)[nH]c(=O)n2[C@H]1CCCN(CC(=O)N(C)C)C1 [Example 93, (S)—N,N-dimethyl-2-(3-(6-methyl-5-(8-methyl-[1,2,4]triazolo[1,5-a]pyridin-6-yl)-2-oxo-2,3-dihydro-1H-benzo[d]imidazol-1-yl)piperidin-1-yl)acetamide] |

— US12187723B2 (BRISTOL-MYERS SQUIBB COMPANY, priority 2019, dated 2025)
